The values that follow come from patent US5508417A, “Broad-spectrum isothiazole antimicrobial agents” (Rohm and Haas Company, priority 1994, dated 1996).

Each structure is given as a SMILES string. ≈ marks a conversion by molar mass, not a printed value. Read-outs that look alike come from different tables or passages of the source.

The subject of assay [1] is Pseudomonas aeruginosa. The experiment in a line: Minimum inhibitory concentration by two-fold serial dilution in Trypticase Soy Broth, Pseudomonas aeruginosa. The class given is cell-based. As for the experimental part: (§1) A stock solution of the test compound was made in dimethyl sulfoxide at 13,000 ppm and then diluted 26-fold to give a starting concentration of 500 ppm. The antimicrobial activity was evaluated by a two-fold serial dilution of the starting concentration of 500 ppm, using Trypticase Soy Broth medium at pH 7.0. The minimum inhibitory concentration (MIC) of compounds 1-15 against the test organisms are shown in Table 2. |Pseudomonas aeruginosa | Psae The antimicrobial activity of these compounds was determined as described in Example 6 with only one change. The organism Saur was replaced by Rhodotorula rubra (Rrub). Rrub is a pink yeast.

In assay [2] the test system is Staphlococcus aureus. Kind of assay: Minimum inhibitory concentration by two-fold serial dilution in Trypticase Soy Broth, Staphlococcus aureus. The following applies: Table 2, pH 7.0, read-out: Antimicrobial Activity (MIC), Saur. In kind it is cell-based. As for the experimental part: A stock solution of the test compound was made in dimethyl sulfoxide at 13,000 ppm and then diluted 26-fold to give a starting concentration of 500 ppm. The antimicrobial activity was evaluated by a two-fold serial dilution of the starting concentration of 500 ppm, using Trypticase Soy Broth medium at pH 7.0. The minimum inhibitory concentration (MIC) of compounds 1-15 against the test organisms are shown in Table 2. |Staphlococcus aureus | Saur

Assay [3] deals with Escherichia coli. The experiment in a line: Minimum inhibitory concentration by two-fold serial dilution in Trypticase Soy Broth, Escherichia coli. The class given is cell-based. Here is the method: as §1, with “|Escherichia coli Ecol” for “|Pseudomonas aeruginosa | Psae”
The subject of assay [4] is Aspergillus niger. The experiment in a line: Minimum inhibitory concentration by two-fold serial dilution in Trypticase Soy Broth, Aspergillus niger. The class given is cell-based. As for the experimental part: as §1, with “|Aspergillus niger Anig” for “|Pseudomonas aeruginosa | Psae”
The test system of assay [5] is Rhodotorula rubra. The experiment in a line: Minimum inhibitory concentration by two-fold serial dilution in Trypticase Soy Broth, Rhodotorula rubra. The class given is cell-based. The following applies: Table 3, comparative, as described in Example 6, read-out: Comparative Antimicrobial Activity (MIC), Rrub. As for the experimental part:
A stock solution of the test compound was made in dimethyl sulfoxide at 13,000 ppm and then diluted 26-fold to give a starting concentration of 500 ppm. The antimicrobial activity was evaluated by a two-fold serial dilution of the starting concentration of 500 ppm, using Trypticase Soy Broth medium at pH 7.0. The antimicrobial activity of these compounds was determined as described in Example 6 with only one change. The organism Saur was replaced by Rhodotorula rubra (Rrub). Rrub is a pink yeast.

For assay [6] the following is noted: in words; U.S. Pat. No. 3,957,808; cited from earlier work.
Where [7] appears, read: Table 2, Trypticase Soy Broth, pH 7.0, read-out: Antimicrobial Activity (MIC), Psae.
The mark [8] stands for this setting: Table 2, Trypticase Soy Broth, pH 7.0, read-out: Antimicrobial Activity (MIC), Ecol.
The mark [9] stands for this setting: Table 2, Trypticase Soy Broth, pH 7.0, read-out: Antimicrobial Activity (MIC), Anig.
Where [10] appears, read: Table 3, comparative, as described in Example 6, read-out: Comparative Antimicrobial Activity (MIC), Psae.
Setting [11] is: Table 3, comparative, as described in Example 6, read-out: Comparative Antimicrobial Activity (MIC), Ecol.
Where [12] appears, read: Table 3, comparative, as described in Example 6, read-out: Comparative Antimicrobial Activity (MIC), Anig.

What is called MIC is the lowest concentration that inhibits growth of the organism.

In the case of `CC=C(COc1cc(Cl)sn1)S(=O)(=O)c1ccccc1` [Compound 8, 1-(5-Chloroisothiazoloxy-3-yl-methyl)-2-phenylsulfonyl-2-butene], the MIC in assay [1] (setting [7]) amounted to 64 µg/mL (≈ 194 µM); in assay [2], 32 µg/mL (≈ 97 µM); in assay [3] (setting [8]), 32 µg/mL (≈ 97 µM); in assay [4] (setting [9]), 64 µg/mL (≈ 194 µM).
As for `C=C(COc1cc(Cl)sn1)[S+]([O-])c1ccccc1` (stereo not shown) [Compound 6, 3-(5-Chloroisothiazoloxy-3-yl-methyl)-2-phenylsulfinyl-1-propene], the MIC turned out to be 125 µg/mL (≈ 417 µM) in assay [1] (setting [7]), 125 µg/mL (≈ 417 µM) in assay [2], 125 µg/mL (≈ 417 µM) in assay [3] (setting [8]) and 32 µg/mL (≈ 107 µM) in assay [4] (setting [9]).
On to `CC(=O)C(=Cc1ccccc1)COc1nsc2c1CCC2` [Compound 11, α-(4,5-Trimethyleneisothiazoloxy-3-yl-methyl)benzalacetone], for which the MIC in assay [1] (setting [7]) is > 500 µg/mL; in assay [2], > 500 µg/mL; in assay [3] (setting [8]), > 500 µg/mL; in assay [4] (setting [9]), 500 µg/mL (≈ 1670 µM).
With `O=C1C=CC(=O)C(COc2ccsn2)=C1` [Compound 15, 2-(Isothiazoloxy-3-yl-methyl)-1,4-benzoquinone], the MIC worked out at 32 µg/mL (≈ 145 µM) in assay [1] (setting [7]), 32 µg/mL (≈ 145 µM) in assay [2], 64 µg/mL (≈ 289 µM) in assay [3] (setting [8]) and 16 µg/mL (≈ 72.3 µM) in assay [4] (setting [9]).
Turning to `CC(=O)C(=Cc1ccccc1)COc1cc(Cl)sn1` [Compound 5, α-(5-Chloroisothiazoloxy-3-yl-methyl)benzalacetone], the MIC in assay [1] (setting [7]) was 16 µg/mL (≈ 54.5 µM); in assay [2], 2 µg/mL (≈ 6.81 µM); in assay [3] (setting [8]), 4 µg/mL (≈ 13.6 µM); in assay [4] (setting [9]), 1 µg/mL (≈ 3.4 µM).
For the molecule `C=C(COc1cc(Cl)sn1)C(=O)OC` [Compound 2, Methyl 2-(5-chloroisothiazoloxy-3-yl-methyl)acrylate], the MIC was 32 µg/mL (≈ 137 µM) in assay [1] (setting [7]); 32 µg/mL (≈ 137 µM) in assay [1] (setting [10]); 4 µg/mL (≈ 17.1 µM) in assay [2]; 8 µg/mL (≈ 34.2 µM) in assay [5]; 2 µg/mL (≈ 8.56 µM) in assay [3] (setting [8]); < 4 µg/mL in assay [3] (setting [11]). For the same molecule, the MIC came to 1 µg/mL (≈ 4.28 µM) in assay [4] (setting [9]) and 4 µg/mL (≈ 17.1 µM) in assay [4] (setting [12]).
For `O=c1c(COc2cc(Cl)sn2)coc2ccccc12` [Compound 13, 3-(5-Chloroisothiazoloxy-3-yl-methyl)chromone], the MIC in assay [1] (setting [7]) came out at 32 µg/mL (≈ 109 µM); in assay [2], 8 µg/mL (≈ 27.2 µM); in assay [3] (setting [8]) it was 8 µg/mL (≈ 27.2 µM); in assay [4] (setting [9]), 16 µg/mL (≈ 54.5 µM).
As for `O=C1C=CC(=O)C(COc2cc(Cl)sn2)=C1` [Compound 14, 2-(5-Chloroisothiazoloxy-3-yl-methyl)-1,4-benzoquinone], the MIC in assay [1] (setting [7]) is 64 µg/mL (≈ 250 µM); in assay [2] it was 64 µg/mL (≈ 250 µM); in assay [3] (setting [8]), 16 µg/mL (≈ 62.6 µM); in assay [4] (setting [9]), 8 µg/mL (≈ 31.3 µM).
Consider `CC=C(COc1cc(Cl)sn1)C(=O)OCC` [Compound 3, Ethyl 3-methyl-2-(5-chloroisothiazoloxy-3-yl-methyl)acrylate], for which the minimal inhibitory concentration (MIC) amounted to 125 µg/mL (≈ 478 µM) in assay [1] (setting [7]), 8 µg/mL (≈ 30.6 µM) in assay [2], 8 µg/mL (≈ 30.6 µM) in assay [3] (setting [8]) and 4 µg/mL (≈ 15.3 µM) in assay [4] (setting [9]).
As to `C=CCOc1cc(Cl)sn1` [B, reference compound], the MIC in assay [1] (setting [10]) is 500 µg/mL (≈ 2850 µM); in assay [5] it was 500 µg/mL (≈ 2850 µM); in assay [3] (setting [11]), 250 µg/mL (≈ 1420 µM); in assay [4] (setting [12]), 250 µg/mL (≈ 1420 µM).
Consider `C=CCOc1ccsn1` [Compound A, reference compound], for which the MIC in assay [1] (setting [10]) is > 500 µg/mL; in assay [5], > 500 µg/mL; in assay [3] (setting [11]), > 500 µg/mL; in assay [4] (setting [12]) it was 500 µg/mL (≈ 3540 µM). In addition, in assay [6], the microbicidal properties result is on record as “useful microbicidal properties”.
Consider `C=C(COc1ccsn1)C(=O)OC` [Compound 1, Methyl 2-(isothiazoloxy-3-yl-methyl)acrylate], for which the MIC in assay [1] (setting [7]), in assay [1] (setting [10]), in assay [5], in assay [3] (setting [8]), in assay [3] (setting [11]) and in assay [4] (setting [9]) was 32 µg/mL (≈ 161 µM) throughout. Moreover, the MIC in assay [4] (setting [12]) was 32 µg/mL (≈ 161 µM).
As for `C=C(C(C)Oc1cc(Cl)sn1)S(=O)(=O)c1ccccc1` (stereo not shown) [Compound 7, 3-(5-Chloroisothiazoloxy-3-yl)-2-phenylsulfonyl-1-butene], the MIC in assay [1] (setting [7]), in assay [2], in assay [3] (setting [8]) and in assay [4] (setting [9]) was 32 µg/mL (≈ 97 µM) throughout.
For `N#CC(=Cc1ccccc1)COc1cc(Cl)sn1` [Compound 4, 2-(5-Chloroisothiazoloxy-3-yl-methyl)-3-phenylacrylonitrile], the MIC was > 500 µg/mL in assay [1] (setting [7]), 500 µg/mL (≈ 1810 µM) in assay [2], > 500 µg/mL in assay [3] (setting [8]) and 500 µg/mL (≈ 1810 µM) in assay [4] (setting [9]).
As for `C=C(COc1cc(Cl)sn1)C(=O)O` [Compound 10, 2-(5-Chloroisothiazoloxy-3-yl-methyl)acrylic acid], the MIC in assay [1] (setting [7]) was > 500 µg/mL; in assay [2], 64 µg/mL (≈ 291 µM); in assay [3] (setting [8]), 125 µg/mL (≈ 569 µM); in assay [4] (setting [9]) it was > 500 µg/mL.
As to `C=C(COc1cc(Cl)sn1)C(=O)NC(C)C` [Compound 12, N-Isopropyl 2-(5-chloroisothiazoloxy-3-yl-methyl)acrylamide], the MIC in assay [1] (setting [7]) was 500 µg/mL (≈ 1920 µM); in assay [2], > 500 µg/mL; in assay [3] (setting [8]) it was 500 µg/mL (≈ 1920 µM); in assay [4] (setting [9]), 64 µg/mL (≈ 245 µM).
For `C=C(COc1cc(Cl)sn1)C(=O)NCc1ccccc1` [Compound 9, N-Benzyl 2-(5-chloroisothiazoloxy-3-yl-methyl)acrylamide], the MIC in assay [1] (setting [7]) is > 500 µg/mL; in assay [2], > 500 µg/mL; in assay [3] (setting [8]), > 500 µg/mL; in assay [4] (setting [9]) it was 32 µg/mL (≈ 104 µM).
